SMILES strings stand for the structures. A value given as a limit tells only on which side of the number the result lay.

The target of data set [1] is T1, c-kit (Homo sapiens, UniProt P10721).
T1 construct: purified intracellular domain of c-kit expressed in baculovirus; made in house
The experiment in a line: In vitro TK inhibition assay (ELISA, phosphorylation of tyrosine containing target peptide). It counts as biochemical. The settings on record: purified intracellular domain of c-kit expressed in baculovirus. The method, then:
in Vitro TK Inhibition Assays
Experiments were performed using purified intracellular domain of c-kit expressed in baculovirus. Estimation of the kinase activity was assessed by the phosphorylation of tyrosine containing target peptide estimated by established ELISA assay.

T1 sequence (P10721 546-976 limits assumed): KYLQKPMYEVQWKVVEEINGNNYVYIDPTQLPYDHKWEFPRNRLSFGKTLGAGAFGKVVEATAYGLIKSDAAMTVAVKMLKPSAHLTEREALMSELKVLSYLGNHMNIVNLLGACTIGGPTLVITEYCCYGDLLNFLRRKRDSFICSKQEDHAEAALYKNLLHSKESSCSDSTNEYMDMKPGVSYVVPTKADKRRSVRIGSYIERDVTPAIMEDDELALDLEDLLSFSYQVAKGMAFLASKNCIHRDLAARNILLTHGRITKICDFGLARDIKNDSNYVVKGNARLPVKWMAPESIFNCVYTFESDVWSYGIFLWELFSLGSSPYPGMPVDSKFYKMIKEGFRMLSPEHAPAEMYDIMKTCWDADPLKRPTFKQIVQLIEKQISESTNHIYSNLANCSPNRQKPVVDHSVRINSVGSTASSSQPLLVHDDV

In data set [1], `Cc1ccc(NC(=O)c2cccc(C(F)(F)F)c2F)cc1Nc1nc(-c2cccnc2)cs1` [Compound 055, 2-Fluoro-N-[4-methyl-3-(4-pyridin-3-yl-thiazol-2-ylamino)-phenyl]-3-trifluoromethyl-benzamide] yielded an IC50 below 10 µM.
In data set [1], `Cc1ccc(NC(=O)c2ccc(-c3ccncc3)cc2)cc1Nc1nc(-c2cccnc2)cs1` [Compound 053] yielded a concentration for half-maximal inhibition (IC50) below 10 µM.
As to `Cc1ccc(NC(=O)Nc2ccccc2F)cc1Nc1nc(-c2cccnc2)cs1` [Compound 023, 1-(2-Fluoro-phenyl)-3-[4-methyl-3-(4-pyridin-3-yl-thiazol-2-ylamino)-phenyl]-urea], the melting point was 203 to 206 °C. The compound further gave an IC50 in data set [1] below 10 µM.
In the case of `Cc1ccc(NC(=O)c2cccc(F)c2)cc1Nc1nc(-c2cccnc2)cs1` [Compound 045, 3-Fluoro-N-[4-methyl-3-(4-pyridin-3-yl-thiazol-2-ylamino)-phenyl]-benzamide], the melting point was in the range of 184 to 186 °C.
Still for that read-out and setting: then `Cc1ccc(NC(=O)c2ccc(N(C)C)cc2)cc1Nc1nc(-c2cccnc2)cs1` [Compound 047, 4-Dimethylamino-N-[4-methyl-3-(4-pyridin-3-yl-thiazol-2-ylamino)-phenyl]-benzamide], with 147 to 150 °C.
Still for that read-out and setting: then `Cc1ccc(NC(=O)c2ccc(-c3ccncc3)cc2)cc1Nc1nc(-c2cccnc2)cs1` [Compound 046, N-[4-Methyl-3-(4-pyridin-3-yl-thiazol-2-ylamino)-phenyl]-4-pyridin-4-yl-benzamide], with 254 to 256 °C.
With `Cc1ccc(NC(=O)c2ccc(NS(=O)(=O)c3cccs3)cc2)cc1Nc1nc(-c2cccnc2)cs1` [Compound 044, N-[4-Methyl-3-(4-pyridin-3-yl-thiazol-2-ylamino)-phenyl]-4-(thiophene-2-sulfonylamino)-benzamide], the melting point is 230 to 233 °C.
Consider `Cc1ccc(F)c(C(=O)Nc2ccc(C)c(Nc3nc(-c4cccnc4)cs3)c2)c1` [Compound 048, 2-Fluoro-5-methyl-N-[4-methyl-3-(4-pyridin-3-yl-thiazol-2-ylamino)-phenyl]-benzamide], for which the melting point was in the range of 103 to 106 °C.
Same read-out and setting: for `Cc1ccc(NC(=O)CCCN2CCOCC2)cc1Nc1nc(-c2cccnc2)cs1` [Compound 096, N-[4-Methyl-3-(4-pyridin-3-yl-thiazol-2-ylamtino)-phenyl]-4-morpholin-4-yl-butyramide] the value was 116 to 120 °C.
Still for that read-out and setting: for `Cc1ccc(NC(=O)Nc2ccc(C)c(Nc3nc(-c4cccnc4)cs3)c2)cc1` [Compound 026, 3-[4-Methyl-3-(4-pyridin-3-yl-thiazol-2-ylamino)-phenyl]-3-p-tolyl-urea] the value was 238 to 240 °C.
Same read-out and setting: then `Cc1ccc(NC(=O)c2cccc(OCCN3CCOCC3)c2)cc1Nc1nc(-c2cccnc2)cs1` [Compound 052, N-[4-Methyl-3-(4-pyridin-3-yl-thiazol-2-ylamino)-phenyl]-3-(2-morpholin-4-yl-ethoxy)-benzamide], with 75 to 80 °C; and `Cc1ccc(NC(=O)c2cccc(N3CCOCC3)c2)cc1Nc1nc(-c2cccnc2)cs1` [Compound 090, N-[4-Methyl-3-(4-pyridin-3-yl-thiazol-2-ylamino)-phenyl]-3-morpholin-4-yl-benzamid], with 247 to 248 °C; and `Cc1ccc(NC(=O)Nc2cccc(F)c2)cc1Nc1nc(-c2cccnc2)cs1` [Compound 025, 1-(3-Fluoro-phenyl)-3-[4-methyl-3-(4-pyridin-3-yl-thiazol-2-ylamino)-phenyl]-urea], with 210 to 215 °C.
Compound `Cc1ccc(NC(=O)c2ccc(CN3CCN(C)CC3)c(F)c2)cc1Nc1nc(-c2cccnc2)cs1` [Compound 074, 3-Fluoro-4-(4-methyl-piperazin-1-ylmethyl)-N-[4-methyl-3-(4-pyridin-3-yl-thiazol-2-ylarnino)-phenyl]-benzamide] came in with a concentration for half-maximal inhibition (IC50) in data set [1] below 10 µM.
`Cc1ccc(NC(=O)c2ccc(C(C)(C)C)cc2)cc1Nc1nc(-c2cccnc2)cs1` [Compound 049, 4-tert-Butyl-N-[4-methyl-3-(4-pyridin-3-yl-thiazol-2-ylamino)-phenyl]-benzamide]: the melting point lay in the range of 145 to 150 °C.
Take `Cc1ccc(NC(=O)c2cccc(N(C)C)c2)cc1Nc1nc(-c2cccnc2)cs1` [Compound 088, 3-Dimethylamino-N-[4-methyl-3-(4-pyridin-3-yl-thiazol-2-ylamino)-phenyl]-benzamide]: the melting point is 197 to 198 °C.

One may read the IC50 as the concentration that inhibits the measured activity by half. In general, melting point refers to the temperature of the solid-liquid transition.

The record behind these values is patent US20070191267A1, “Use of tyrosine kinase inhibitors for treating cerebral ischemia” (AB SCIENCE, priority 2003, published 2007).
